Laboratory results taken from patent US8455649B2, “Insecticidal substituted azinyl derivatives” (Dow AgroSciences, LLC, priority 2007, dated 2013).
Like-named read-outs stand apart in the source and are kept apart here.

Columns and labels:
[1] = test system: Corn Earworm (Helicoverpa zea); test: Insecticidal diet-surface test for corn earworm; type: in vivo; conditions: 120 h, read-out: HELIZE AVG % Mortality (50 μg/cm^2)
Procedure: (§1) The compounds identified in Table 1 were tested against beet armyworm and corn earworm as follows:
(§2) Insecticidal Test for Corn Earworm (Helicoverpa zea) and Beet Armyworm (Spodoptera exigua).
(§3) To prepare test solution, the test compound was formulated at 2000 ppm solution as 4 mg/2 mL of 9 acetone:1 tap water. 50 μL of the 2000 ppm (equivalent to 50 μg/cm^2 dose on diet surface area) test solution was pipetted upon the surface of 1 mL of lepidopteran diet (Southland Multi-Species Lepidopteran Diet) contained in each of eight wells per insect species (one well=1 replication). A second-instar corn earworm and beet armyworm was placed upon the treated diet in each well once the solvent had air-dried. Trays containing the treated diet and larvae were covered and then held in a growth chamber at 25° C., 50-55% RH, and 16 hr light:8 hr dark for 5 days. Observation were conducted 5 days after treatment and infestation. The number of dead insects of 8 per species per treatment was then determined and the results are given in Table 2 as a percent control at a dose of […].

[2] = test system: Beet Armyworm (Spodoptera exigua); test: Insecticidal diet-surface test for beet armyworm; type: in vivo; conditions: 120 h, second-instar larvae on treated diet, 50 μg/cm^2 on diet surface, 5 days after treatment, 8 insects per treatment, read-out: LAPHEG AVG % Mortality (50 μg/cm^2)
Procedure: as §1, §2, §3

[3] = second-instar larvae on treated diet, 50 μg/cm^2 on diet surface, 5 days after treatment, 8 insects per treatment

| Compound | mortality at 50 µg/cm2 [1, 3] | mortality at 50 µg/cm2 [2] | mortality at 50 µg/cm2 [1] |
| --- | --- | --- | --- |
| O=C(Nc1ccc(C(F)(F)F)cc1)Nc1nc(OCC(F)(F)F)cc(OCC(F)(F)F)n1 [Compound 1, N′-[4,6-bis(2,2,2-trifluoroethoxy)pyrimidin-2-yl]-N-[4-(trifluoro-methyl)phenyl]urea] | 100% | 100% |  |
| O=C(Nc1ccc(C(F)(F)F)cc1)Nc1nc(OCC(F)F)cc(OCC(F)F)n1 [Compound 2] | 100% | 100% |  |
| O=C(Nc1ccc(OC(F)(F)F)cc1)Nc1nc(OCC(F)(F)F)cc(OCC(F)(F)F)n1 [Compound 3, N-(4-trifluoromethoxyphenyl)-N′-[4,6-(2,2,2-trifluoroethoxy)pyrimidin-2-yl]urea] | 100% | 100% |  |
| N#Cc1ccc(NC(=O)Nc2nc(OCC(F)(F)F)cc(OCC(F)(F)F)n2)cc1 [Compound 4] | 100% | 0% |  |
| O=C(Nc1ccc(Cl)c(Cl)c1)Nc1nc(OCC(F)(F)F)cc(OCC(F)(F)F)n1 [Compound 5] | 50% | 25% |  |
| O=C(Nc1ccc(C(F)(F)F)cc1)Nc1nc(OCC(F)(F)F)cc(SCC(F)(F)F)n1 [Compound 6] | 63% | 0% |  |
| CN(C(=O)Nc1nc(OCC(F)(F)F)cc(OCC(F)(F)F)n1)c1ccc(OC(F)(F)F)cc1 [Compound 7, N′-[4,6-bis(2,2,2-trifluoroethoxy)pyrimidin-2-yl]-N-methyl-N-[4-(trifluoromethoxy)phenyl]urea] | 100% | 100% |  |
| O=C(NNc1ccc(Cl)cc1)Nc1nc(OCC(F)(F)F)cc(OCC(F)(F)F)n1 [Compound 9] | 88% | 100% |  |
| CN(C(=O)Nc1ccc(OC(F)(F)F)cc1)c1nc(OCC(F)(F)F)cc(OCC(F)(F)F)n1 [Compound 10] | 0% | 100% |  |
| CN(C(=O)N(C)c1nc(OCC(F)(F)F)cc(OCC(F)(F)F)n1)c1ccc(OC(F)(F)F)cc1 [Compound 11, N-[4,6-bis(2,2,2-trifluoroethoxy)pyrimidin-2-yl]-N,N′-dimethyl-N-[4-(trifluoromethoxy)phenyl]urea] | 100% | 100% |  |
| CN(C(=O)N(C)c1nc(OCC(F)(F)F)cc(OCC(F)(F)F)n1)c1ccc(C(F)(F)F)cc1 [Compound 12] | 100% | 100% |  |
| CC(=O)OCN(C(=O)Nc1ccc(C(F)(F)F)cc1)c1nc(OCC(F)(F)F)cc(OCC(F)(F)F)n1 [Compound 13] | 100% | 100% |  |
| O=C(Nc1ccc(OC(F)(F)C(F)F)cc1)Nc1nc(OCC(F)(F)F)cc(OCC(F)(F)F)n1 [Compound 14] | 100% | 100% |  |
| O=C(Nc1ccc(OCC(F)F)cc1)Nc1nc(OCC(F)(F)F)cc(OCC(F)(F)F)n1 [Compound 15] | 50% | 75% |  |
| O=C(Nc1ccc(OC(F)=C(Cl)Cl)cc1)Nc1nc(OCC(F)(F)F)cc(OCC(F)(F)F)n1 [Compound 16] | 0% | 100% |  |
| CC(Oc1ccc(NC(=O)Nc2nc(OCC(F)(F)F)cc(OCC(F)(F)F)n2)cc1)C(F)(F)F (centres unmarked) [Compound 17] | 0% | 100% |  |
| CCOCN(C(=O)Nc1ccc(C(F)(F)F)cc1)c1nc(OCC(F)(F)F)cc(OCC(F)(F)F)n1 [Compound 18] | 100% | 100% |  |
| O=C(Nc1ccc(C(F)(F)F)cc1)N(COCc1ccccc1)c1nc(OCC(F)(F)F)cc(OCC(F)(F)F)n1 [Compound 19, N-Benzyloxymethyl-N-[4,6-bis-(2,2,2-trifluoroethoxy)pyrimidin-2-yl]-N′-[(4-trifluoromethyl)phenyl]urea] | 100% | 100% |  |
| O=C(Nc1ccc(Cl)cc1)Nc1nc(OCC(F)(F)F)cc(OCC(F)(F)F)n1 [Compound 20] | 100% | 100% |  |
| CN(C(=O)Nc1nc(OCC(F)(F)F)cc(OCC(F)(F)F)n1)c1ccc(Cl)cc1 [Compound 21] | 100% | 100% |  |
| O=C(Nc1ccc(Br)cc1)Nc1nc(OCC(F)(F)F)cc(OCC(F)(F)F)n1 [Compound 22] | 100% | 100% |  |
| O=C(Nc1ccc(C(F)(F)F)nc1)Nc1nc(OCC(F)(F)F)cc(OCC(F)(F)F)n1 [Compound 24] | 100% | 100% |  |
| CCCN(C(=O)Nc1nc(OCC(F)(F)F)cc(OCC(F)(F)F)n1)c1ccc(OC(F)(F)F)cc1 [Compound 26] | 100% | 100% |  |

| Compound | mortality at 50 µg/cm2 [1, 3] | mortality at 50 µg/cm2 [2] | mortality at 50 µg/cm2 [1] |
| --- | --- | --- | --- |
| CCN(C(=O)Nc1nc(OCC(F)(F)F)cc(OCC(F)(F)F)n1)c1ccc(OC(F)(F)F)cc1 [Compound 27] | 100% | 100% |  |
| COC(=O)CN(C(=O)Nc1nc(OCC(F)(F)F)cc(OCC(F)(F)F)n1)c1ccc(OC(F)(F)F)cc1 [Compound 28] | 100% | 100% |  |
| CN(C(=O)Nc1nc(OCC(F)(F)F)cc(OCC(F)(F)F)n1)c1ccc(OC(F)(F)C(F)F)cc1 [Compound 29] | 100% | 100% |  |
| O=C1CN(c2ccc(OC(F)(F)F)cc2)C(=O)N1c1nc(OCC(F)(F)F)cc(OCC(F)(F)F)n1 [Compound 30] | 100% | 88% |  |
| CN(C(=O)Nc1nc(OCC(F)(F)F)cc(OCC(F)(F)F)n1)c1ccc(C(F)(F)F)cc1 [Compound 31] | 100% | 100% |  |
| O=C(O)CN(C(=O)Nc1nc(OCC(F)(F)F)cc(OCC(F)(F)F)n1)c1ccc(OC(F)(F)F)cc1 [Compound 32] | 100% | 100% |  |
| CCOCN(C(=O)N(COCc1ccccc1)c1nc(OCC(F)(F)F)cc(OCC(F)(F)F)n1)c1ccc(C(F)(F)F)cc1 [Compound 33, N-Benzyloxymethyl-N-[4,6-bis(2,2,2-trifluoroethoxy)pyrimidin-2-yl]-N′-ethoxymethyl-N′-[4-(trifluoromethyl)phenyl]urea] | 100% | 100% |  |
| CCOCN(C(=O)Nc1nc(OCC(F)(F)F)cc(OCC(F)(F)F)n1)c1ccc(C(F)(F)F)cc1 [Compound 34, N′-[4,6-Bis(2,2,2-trifluoroethoxy)pyrimidin-2-yl]-N-ethoxymethyl-N-(4-trifluoromethylphenyl)urea] | 100% | 100% |  |
| CCOC(=O)N(C(=O)Nc1nc(OCC(F)(F)F)cc(OCC(F)(F)F)n1)c1ccc(C(F)(F)F)cc1 [Compound 35] |  | 100% | 100% |
| CCOC(=O)N(C(=O)N(COCc1ccccc1)c1nc(OCC(F)(F)F)cc(OCC(F)(F)F)n1)c1ccc(C(F)(F)F)cc1 [Compound 36] |  | 100% | 100% |
| COCN(C(=O)N(COCc1ccccc1)c1nc(OCC(F)(F)F)cc(OCC(F)(F)F)n1)c1ccc(C(F)(F)F)cc1 [Compound 37] | 100% | 100% |  |
| CC(=O)OCN(C(=O)Nc1nc(OCC(F)(F)F)cc(OCC(F)(F)F)n1)c1ccc(C(F)(F)F)cc1 [Compound 38] | 100% | 100% |  |
| COCN(C(=O)Nc1nc(OCC(F)(F)F)cc(OCC(F)(F)F)n1)c1ccc(C(F)(F)F)cc1 [Compound 39] | 100% | 100% |  |
| CCN(C(=O)Nc1nc(OCC(F)(F)F)cc(OCC(F)(F)F)n1)c1ccc(Br)cc1 [Compound 40] | 100% | 100% |  |
| CN(C(=O)Nc1nc(OCC(F)(F)F)cc(OCC(F)(F)F)n1)c1ccc(Br)cc1 [Compound 41, N′-[4,6-bis(2,2,2-trifluoroethoxy)pyrimidin-2-yl]-N-methyl-N-(4-bromophenyl)urea] | 100% | 100% |  |
| CN(C(=O)Nc1nc(OCC(F)(F)F)cc(OCC(F)(F)F)n1)c1ccc(Br)nc1 [Compound 42] | 100% | 100% |  |
| O=C(Nc1ccc(OC(F)(F)F)cc1)N(COCc1ccccc1)c1nc(OCC(F)(F)F)cc(OCC(F)(F)F)n1 [Compound 43] | 100% | 100% |  |
| CCOCN(C(=O)Nc1nc(OCC(F)(F)F)cc(OCC(F)(F)F)n1)c1ccc(OC(F)(F)F)cc1 [Compound 44] | 100% | 100% |  |
| COCN(C(=O)Nc1nc(OCC(F)(F)F)cc(OCC(F)(F)F)n1)c1ccc(OC(F)(F)F)cc1 [Compound 45] | 100% | 100% |  |
| CCN(C(=O)Nc1nc(OCC(F)(F)F)cc(OCC(F)(F)F)n1)c1ccc(Br)nc1 [Compound 46] | 100% | 100% |  |
| CN(C(=O)Nc1nc(OCC(F)(F)F)cc(OCC(F)(F)F)n1)c1ccc(C(F)(F)F)nc1 [Compound 47] | 100% | 100% |  |
| CN(C(=O)Nc1nc(OCC(F)(F)F)cc(OCC(F)(F)F)n1)c1ccc(Cl)nc1 [Compound 48] | 100% | 100% |  |
| O=C(Nc1ccc(Cl)nc1)Nc1nc(OCC(F)(F)F)cc(OCC(F)(F)F)n1 [Compound 49] | 100% | 100% |  |
